# Experimental data as given in patent publication US20230019236A1, “PROTEIN TYROSINE PHOSPHATASE INHIBITORS AND METHODS OF USE THEREOF” (Calico Life Sciences LLC, priority 2019, published 2023).
# Biological target: T1, His tagged full-length PTP1B protein (Homo sapiens, UniProt P18031)
# T1 construct: made in house
# T1 sequence (P18031 with tags, fused parts or gaps): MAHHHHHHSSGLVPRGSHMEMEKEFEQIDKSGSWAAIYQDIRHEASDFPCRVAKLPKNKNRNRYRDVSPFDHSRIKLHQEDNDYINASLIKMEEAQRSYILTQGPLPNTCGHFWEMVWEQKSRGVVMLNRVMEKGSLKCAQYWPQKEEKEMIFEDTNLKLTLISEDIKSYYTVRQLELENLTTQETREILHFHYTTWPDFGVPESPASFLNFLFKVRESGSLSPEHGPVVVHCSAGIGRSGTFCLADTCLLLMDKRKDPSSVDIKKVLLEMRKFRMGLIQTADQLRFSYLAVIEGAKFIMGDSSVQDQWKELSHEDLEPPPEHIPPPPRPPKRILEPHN
# Test: Mobility Shift Assay (MSA) used to determine potency of PTP1B inhibitors
# Format: biochemical
# Details: Table 2
# Method: The enzymatic assay used to determine activity is a mobility shift assay using a LabChip EZ Reader by Caliper Life Sciences. The enzymatic reaction was carried out in assay buffer (50 mM HEPES pH 7.5, 1 mM EGTA, 10 mM EDTA, 0.01% Tween® 20, and 2 mM DTT). […] The enzyme (at 0.5 nM) was incubated with compound for 10 minutes at room temperature. […] The % inhibition was then used to calculate the IC50 values.
row,Compound,IC50 [nM]
1,"O=C1CN(c2c(O)cc3ccc4occc4c3c2F)S(=O)(=O)N1 [Compound 104, 5-(9-fluoro-7-hydroxynaphtho[2,1-b]furan-8-yl)-1λ^6,2,5-thiadiazolidine-1,1,3-trione]",10 to 100
2,"CCNCCCc1ccc2cc(O)c(N3CC(=O)NS3(=O)=O)c(F)c2c1 [Compound 140, 5-{7-[3-(ethylamino)propyl]-1-fluoro-3-hydroxynaphthalen-2-yl}-1λ^6,2,5-thiadiazolidine-1,1,3-trione]",10 to 100
3,"COc1ccc2cc(O)c(N3CC(=O)NS3(=O)=O)c(F)c2c1Cl [Compound 234, 5-(8-chloro-1-fluoro-3-hydroxy-7-methoxynaphthalen-2-yl)-1λ^6,2,5-thiadiazolidine-1,1,3-trione]",10 to 100
4,"O=C1CN(c2c(O)cc3ccc(OC4COC4)cc3c2F)S(=O)(=O)N1 [Compound 274, 5-{1-fluoro-3-hydroxy-7-[(oxetan-3-yl)oxy]naphthalen-2-yl}-1λ^6,2,5-thiadiazolidine-1,1,3-trione]",1 to 10
5,"O=C1CN(c2c(O)cc3ccc(C4CNC4)cc3c2F)S(=O)(=O)N1 [Compound 226, 5-[7-(azetidin-3-yl)-1-fluoro-3-hydroxynaphthalen-2-yl]-1λ^6,2,5-thiadiazolidine-1,1,3-trione]",10 to 100
6,"CS(=O)(=O)N1CC(Nc2ccc3cc(O)c(N4CC(=O)NS4(=O)=O)c(F)c3c2)C1 [Compound 128, 5-(1-fluoro-3-hydroxy-7-{[1-(methanesulfonyl)azetidin-3-yl]amino}naphthalen-2-yl)-1λ^6,2,5-thiadiazolidine-1,1,3-trione]",1 to 10
7,"O=C1CN(c2c(O)cc3ccc(OCCNC4CC4)cc3c2F)S(=O)(=O)N1 [Compound 142, 5-{7-[2-(cyclopropylamino)ethoxy]-1-fluoro-3-hydroxynaphthalen-2-yl}-1λ^6,2,5-thiadiazolidine-1,1,3-trione]",10 to 100
8,"CCNCCOc1ccc2cc(O)c(N3CC(=O)NS3(=O)=O)c(F)c2c1 [Compound 144, 5-{7-[2-(ethylamino)ethoxy]-1-fluoro-3-hydroxynaphthalen-2-yl}-1λ^6,2,5-thiadiazolidine-1,1,3-trione]",10 to 100
9,"O=C1CN(c2c(O)cc3ccc(C4=CCOC4)cc3c2F)S(=O)(=O)N1 [Compound 263, 5-[7-(2,5-dihydrofuran-3-yl)-1-fluoro-3-hydroxynaphthalen-2-yl]-1λ^6,2,5-thiadiazolidine-1,1,3-trione]",10 to 100
10,"COCCNCCOc1ccc2cc(O)c(N3CC(=O)NS3(=O)=O)c(F)c2c1 [Compound 138, 5-(1-fluoro-3-hydroxy-7-{2-[(2-methoxyethyl)amino]ethoxy}naphthalen-2-yl)-1λ^6,2,5-thiadiazolidine-1,1,3-trione]",10 to 100
11,"O=C1CN(c2c(O)cc3ccc(OCCN4CCOCC4)cc3c2F)S(=O)(=O)N1 [Compound 100, 5-{1-fluoro-3-hydroxy-7-[2-(morpholin-4-yl)ethoxy]naphthalen-2-yl}-1λ^6,2,5-thiadiazolidine-1,1,3-trione]",10 to 100
12,"O=C1CN(c2c(O)cc3ccc(O)cc3c2F)S(=O)(=O)N1 [Compound 276, 5-(1-fluoro-3,7-dihydroxynaphthalen-2-yl)-1λ^6,2,5-thiadiazolidine-1,1,3-trione]",> 100
13,"COCc1ccc2cc(O)c(N3CC(=O)NS3(=O)=O)c(F)c2c1 [Compound 229, 5-[1-fluoro-3-hydroxy-7-(methoxymethyl)naphthalen-2-yl]-1λ^6,2,5-thiadiazolidine-1,1,3-trione]",10 to 100
14,"O=C1CN(c2c(O)cc3ccc(NCC4CC4)cc3c2F)S(=O)(=O)N1 [Compound 202, 5-{7-[(cyclopropylmethyl)amino]-1-fluoro-3-hydroxynaphthalen-2-yl}-1λ^6,2,5-thiadiazolidine-1,1,3-trione]",10 to 100

# Second part, the molecule after the results:
row,IC50 [nM],Compound
1,< 1,"CCS(=O)(=O)N1CC=C(c2ccc3cc(O)c(N4CC(=O)NS4(=O)=O)c(F)c3c2)C1 [Compound 295, 5-{7-[1-(ethanesulfonyl)-2,5-dihydro-1H-pyrrol-3-yl]-1-fluoro-3-hydroxynaphthalen-2-yl}-1λ^6,2,5-thiadiazolidine-1,1,3-trione]"
2,< 1,"O=C1CN(c2c(O)cc3ccc(C4=CCN(S(=O)(=O)c5ccoc5)C4)cc3c2F)S(=O)(=O)N1 [Compound 312, 5-{1-fluoro-7-[1-(furan-3-sulfonyl)-2,5-dihydro-1H-pyrrol-3-yl]-3-hydroxynaphthalen-2-yl}-1λ^6,2,5-thiadiazolidine-1,1,3-trione]"
3,< 1,"CC(C)CCS(=O)(=O)N1CC=C(c2ccc3cc(O)c(N4CC(=O)NS4(=O)=O)c(F)c3c2)C1 [Compound 313, 5-{1-fluoro-3-hydroxy-7-[1-(3-methylbutane-1-sulfonyl)-2,5-dihydro-1H-pyrrol-3-yl]naphthalen-2-yl}-1λ^6,2,5-thiadiazolidine-1,1,3-trione]"
4,1 to 10,"O=C1CN(c2c(O)cc3ccc(OCCn4cccn4)cc3c2F)S(=O)(=O)N1 [Compound 188, 5-{1-fluoro-3-hydroxy-7-[2-(1H-pyrazol-1-yl)ethoxy]naphthalen-2-yl}-1λ^6,2,5-thiadiazolidine-1,1,3-trione]"
5,< 1,"O=C1CN(c2c(O)cc3ccc(C4=CCN(S(=O)(=O)c5ccsc5)C4)cc3c2F)S(=O)(=O)N1 [Compound 314, 5-{1-fluoro-3-hydroxy-7-[1-(thiophene-3-sulfonyl)-2,5-dihydro-1H-pyrrol-3-yl]naphthalen-2-yl}-1λ^6,2,5-thiadiazolidine-1,1,3-trione]"
6,1 to 10,"O=C1CN(c2c(O)cc3ccc(CC4CN(S(=O)(=O)C5CC5)C4)cc3c2F)S(=O)(=O)N1 [Compound 256, 5-(7-{[1-(cyclopropanesulfonyl)azetidin-3-yl]methyl}-1-fluoro-3-hydroxynaphthalen-2-yl)-1λ^6,2,5-thiadiazolidine-1,1,3-trione]"
7,1 to 10,"C[C@@H](O)CCCc1ccc2cc(O)c(N3CC(=O)NS3(=O)=O)c(F)c2c1 [Compound 151, 5-{1-fluoro-3-hydroxy-7-[(4R)-4-hydroxypentyl]naphthalen-2-yl}-1λ^6,2,5-thiadiazolidine-1,1,3-trione]"
8,1 to 10,"Nc1ccccc1CS(=O)(=O)N1CC=C(c2ccc3cc(O)c(N4CC(=O)NS4(=O)=O)c(F)c3c2)C1 [Compound 195, 5-(7-{1-[(2-aminophenyl)methanesulfonyl]-2,5-dihydro-1H-pyrrol-3-yl}-1-fluoro-3-hydroxynaphthalen-2-yl)-1λ^6,2,5-thiadiazolidine-1,1,3-trione]"
9,< 1,"O=C1CN(c2c(O)cc3ccc(OCC4CC(F)(F)C4)cc3c2F)S(=O)(=O)N1 [Compound 235, 5-{7-[(3,3-difluorocyclobutyl)methoxy]-1-fluoro-3-hydroxynaphthalen-2-yl}-1λ^6,2,5-thiadiazolidine-1,1,3-trione]"
10,< 1,"CCCCS(=O)(=O)N1CC=C(c2ccc3cc(O)c(N4CC(=O)NS4(=O)=O)c(F)c3c2)C1 [Compound 291, 5-{7-[1-(butane-1-sulfonyl)-2,5-dihydro-1H-pyrrol-3-yl]-1-fluoro-3-hydroxynaphthalen-2-yl}-1λ^6,2,5-thiadiazolidine-1,1,3-trione]"
11,< 1,"O=C1CN(c2c(O)cc3ccc(C4=CCN(S(=O)(=O)c5ccccc5)C4)cc3c2F)S(=O)(=O)N1 [Compound 315, 5-{7-[1-(benzenesulfonyl)-2,5-dihydro-1H-pyrrol-3-yl]-1-fluoro-3-hydroxynaphthalen-2-yl}-1λ^6,2,5-thiadiazolidine-1,1,3-trione]"
